Holding throughout (assay): In vitro anti-tumor activity of molecular glue compounds, CellTiter-Lumi cell viability assay
Common to all, as to type: cell-based

Assay [1] concerns HL-60. The conditions noted are these: Homo sapiens; HL-60 cells, 96 h incubation; read-out: Cell inhibitory activity (IC50 values) HL-60. How it is done:
(§1) Different tumor cells were all commercially available and used for evaluating the anti-tumor inhibitory activity of the compounds of the present disclosure. Various tumor cells were cultured until the cell confluency reached 80%-90%, with cell viability above 90% as determined by trypan blue exclusion. Then, the cells were plated. Specifically, after cell density optimization, 100 µL of each of the cell suspensions of HL-60 and SK-BR-3 cells (cell density: 3000 cells/well), Romas cells (cell density: 6000 cells/well), NCI-H929 cells (cell density: 4000 cells/well), and NCI-H82 cells (cell density: 5000 cells/well) was plated in a BeyoGold™ ultra-low attachment black clear-bottom 96-well plate (Cat. No.: FULA965-24pcs), and the plate was incubated overnight. The next day, after the adherent cells were adhered to the wall and suspension cells requiring aggregation were aggregated, 50 µL of culture medium was aspirated from each well of the 96-well plate. Then, the compounds diluted with the corresponding culture media were added. Specifically, the compounds were serially diluted at a 5-fold gradient starting from the highest concentration of 1 µM, with a final DMSO concentration of 1%o, and the test compounds were then added to the cell culture plate. The plate was incubated in an incubator at 37 °C with 5% carbon dioxide for 96 h. Before measurement, the CellTiter-Lumi™ luminescent cell viability assay reagent was equilibrated to room temperature in the dark. Then, 50 µL of the CellTiter-Lumi™ (Cat. No.: C0065XL) cell viability assay reagent was added to each well of the 96-well plate. The plate was shaken in the dark on a shaker at 300 rpm for 10 min to ensure complete cell lysis. After the reaction was completed, the luminescence was measured on a multi-mode microplate reader. The cell inhibition rate was determined according to the luminescence. Then, a cell viability curve was generated by Graphpad Prism 8.0, and the IC50 values were calculated. The compounds of the present disclosure were tested for activity by the method described above. Table 1. Cell inhibitory activity (IC50 values)

The test system of assay [2] is NCI-H82. Conditions: Homo sapiens; NCI-H82 cells, 96 h incubation; read-out: Cell inhibitory activity (IC50 values) NCI-H82. How it is done:
as §1

For assay [3], the system named is NCI-H929. Conditions: Homo sapiens; NCI-H929 cells, 96 h incubation; read-out: Cell inhibitory activity (IC50 values) NCI-H929. How it is done: as §1
Assay [4] concerns Romas. The conditions noted are these: Romas cells, 96 h incubation; read-out: Cell inhibitory activity (IC50 values) Romas. How it is done:
as §1

The test system of assay [5] is SK-BR-3. Conditions: Homo sapiens; SK-BR-3 cells, 96 h incubation; read-out: Cell inhibitory activity (IC50 values) SK-BR-3. How it is done: as §1

One may read the IC50 as the midpoint of a concentration-inhibition curve.

For the molecule `O=C1CCC(N2Cc3cc(CNC(=O)Nc4ccc(COC5CCCNC5)c(Cl)c4)ccc3C2=O)C(=O)N1` (stereo not shown) [Compound B7], the IC50 in assay [1], in assay [2], in assay [3], in assay [4] and in assay [5] was 10 to 50 nM in each case.
For the molecule `O=C1CCC(N2Cc3cc(CNC(=O)Nc4ccc(COCC5CCCNC5)c(Cl)c4)ccc3C2=O)C(=O)N1` (stereo not shown) [Compound B8], the IC50 in assay [1], in assay [2], in assay [3], in assay [4] and in assay [5] was 10 to 50 nM each time.
With `O=C1CCC(N2Cc3cc(CNC(=O)Nc4ccc(COCCC5CCCNC5)c(Cl)c4)ccc3C2=O)C(=O)N1` (stereo not shown) [Compound B9], the IC50 in assay [1] is less than 10 nM; in assay [2] it was 10 to 50 nM; in assay [3], less than 10 nM; in assay [4] it was 10 to 50 nM; in assay [5], 10 to 50 nM.
As to `O=C1CCC(N2Cc3cc(CNC(=O)Nc4ccc(COCCCC5CCCNC5)c(Cl)c4)ccc3C2=O)C(=O)N1` (stereo not shown) [Compound B10], the IC50 in assay [1] was 10 to 50 nM; in assay [2] it was greater than 100 nM; in assay [3] it was less than 10 nM; in assay [4] it was 10 to 50 nM; in assay [5], 10 to 50 nM.
Turning to `O=C1CCC(N2Cc3cc(CNC(=O)Nc4ccc(CCOC5CCCNC5)c(Cl)c4)ccc3C2=O)C(=O)N1` (stereo not shown) [Compound B13], the IC50 in assay [1] is less than 10 nM; in assay [2], 10 to 50 nM; in assay [3], less than 10 nM; in assay [4] it was 10 to 50 nM; in assay [5], 10 to 50 nM.
For the molecule `O=C1CCC(N2Cc3cc(CNC(=O)Nc4ccc(CCOCC5CCCNC5)c(Cl)c4)ccc3C2=O)C(=O)N1` (stereo not shown) [Compound B14], the concentration for half-maximal inhibition (IC50) is less than 10 nM in assay [1]; 10 to 50 nM in assay [2]; less than 10 nM in assay [3]; less than 10 nM in assay [4]; 10 to 50 nM in assay [5].
For `O=C1CCC(N2Cc3cc(CNC(=O)Nc4ccc(CCOCCC5CCCNC5)c(Cl)c4)ccc3C2=O)C(=O)N1` (stereo not shown) [Compound B15], the concentration for half-maximal inhibition (IC50) is less than 10 nM in assay [1]; greater than 100 nM in assay [2]; 10 to 50 nM in assay [3]; 10 to 50 nM in assay [4]; 10 to 50 nM in assay [5].
With `O=C1CCC(N2Cc3cc(CNC(=O)Nc4ccc(CCCOCC5CCCNC5)c(Cl)c4)ccc3C2=O)C(=O)N1` (stereo not shown) [Compound B20], the IC50 was less than 10 nM in assay [1]; 10 to 50 nM in assay [2]; less than 10 nM in assay [3]; less than 10 nM in assay [4]; less than 10 nM in assay [5].
`O=C1CCC(N2Cc3cc(CNC(=O)Nc4ccc(CCCOCCC5CCCNC5)c(Cl)c4)ccc3C2=O)C(=O)N1` (stereo not shown) [Compound B21]: the IC50 was less than 10 nM in assay [1]; greater than 100 nM in assay [2]; 10 to 50 nM in assay [3]; 10 to 50 nM in assay [4]; 10 to 50 nM in assay [5].
Regarding `O=C1CCC(N2Cc3cc(CNC(=O)Nc4ccc(CCCCOC5CCCNC5)c(Cl)c4)ccc3C2=O)C(=O)N1` (stereo not shown) [Compound B25], the IC50 in assay [1] is less than 10 nM; in assay [2], 10 to 50 nM; in assay [3], less than 10 nM; in assay [4] it was less than 10 nM; in assay [5] it was less than 10 nM.
On to `CNC1CCCC(OCCc2ccc(NC(=O)NCc3ccc4c(c3)CN(C3CCC(=O)NC3=O)C4=O)cc2Cl)C1` (stereo not shown) [Compound B43], for which the IC50 was less than 10 nM in assay [1]; 10 to 50 nM in assay [2]; less than 10 nM in assay [3]; less than 10 nM in assay [4]; less than 10 nM in assay [5].
Consider `CNC1COCC(OCCc2ccc(NC(=O)NCc3ccc4c(c3)CN(C3CCC(=O)NC3=O)C4=O)cc2Cl)C1` (stereo not shown) [Compound B44], for which the half-maximal inhibitory concentration (IC50) was less than 10 nM in assay [1]; 10 to 50 nM in assay [2]; less than 10 nM in assay [3]; less than 10 nM in assay [4]; less than 10 nM in assay [5].
Regarding `CNCC1(COCCc2ccc(NC(=O)NCc3ccc4c(c3)CN(C3CCC(=O)NC3=O)C4=O)cc2Cl)CCCCC1` (stereo not shown) [Compound B45], the IC50 in assay [1] was less than 10 nM; in assay [2] it was 10 to 50 nM; in assay [3], less than 10 nM; in assay [4], less than 10 nM; in assay [5] it was less than 10 nM.
With `O=C1CCC(N2Cc3cc(CNC(=O)Nc4ccc(CCOCCNC5CCCCC5)c(Cl)c4)ccc3C2=O)C(=O)N1` (stereo not shown) [Compound B46], the concentration for half-maximal inhibition (IC50) in assay [1] is less than 10 nM; in assay [2], greater than 100 nM; in assay [3] it was 10 to 50 nM; in assay [4] it was 50 to 100 nM; in assay [5] it was 50 to 100 nM.
On to `O=C1CCC(N2Cc3cc(CNC(=O)Nc4ccc(CCOCCNC5CC5)c(Cl)c4)ccc3C2=O)C(=O)N1` (stereo not shown) [Compound B47], for which the IC50 is 10 to 50 nM in assay [1]; greater than 100 nM in assay [2]; 10 to 50 nM in assay [3]; greater than 100 nM in assay [4]; greater than 100 nM in assay [5].
Consider `O=C1CCC(N2Cc3cc(CNC(=O)Nc4ccc(CCOCCNC5CCOCC5)c(Cl)c4)ccc3C2=O)C(=O)N1` (stereo not shown) [Compound B48], for which the IC50 in assay [1] is less than 10 nM; in assay [2], greater than 100 nM; in assay [3], 10 to 50 nM; in assay [4], 50 to 100 nM; in assay [5], 50 to 100 nM.
For the molecule `CNCCOCCC1(c2ccc(NC(=O)NCc3ccc4c(c3)CN(C3CCC(=O)NC3=O)C4=O)cc2Cl)CCCCC1` (stereo not shown) [Compound B51], the concentration for half-maximal inhibition (IC50) in assay [1] was 10 to 50 nM; in assay [2] it was greater than 100 nM; in assay [3], 10 to 50 nM; in assay [4], 50 to 100 nM; in assay [5] it was 50 to 100 nM.
For `O=C1CCC(N2Cc3cc(CNC(=O)Nc4ccc(CCOCC5CNCCO5)c(Cl)c4)ccc3C2=O)C(=O)N1` (stereo not shown) [Compound B53], the 50% inhibitory concentration (IC50) was less than 10 nM in assay [1]; 10 to 50 nM in assay [2]; less than 10 nM in assay [3]; less than 10 nM in assay [4]; less than 10 nM in assay [5].
For `CNCC1CCCC(OCCc2ccc(NC(=O)NCc3ccc4c(c3)CN(C3CCC(=O)NC3=O)C4=O)cc2Cl)C1` (stereo not shown) [Compound B54], the concentration for half-maximal inhibition (IC50) is less than 10 nM in assay [1]; 10 to 50 nM in assay [2]; less than 10 nM in assay [3]; 10 to 50 nM in assay [4]; 10 to 50 nM in assay [5].
For `O=C1CCC(N2Cc3cc(CNC(=O)Nc4ccc(CCCOC5CCNC5)c(Cl)c4)ccc3C2=O)C(=O)N1` (stereo not shown) [Compound B64], the IC50 in assay [1] was less than 10 nM; in assay [2], 10 to 50 nM; in assay [3] it was less than 10 nM; in assay [4], less than 10 nM; in assay [5], less than 10 nM.
Regarding `O=C1CCC(N2Cc3cc(CNC(=O)Nc4ccc(CCCOCC5CCCN5)c(Cl)c4)ccc3C2=O)C(=O)N1` (stereo not shown) [Compound B65], the half-maximal inhibitory concentration (IC50) in assay [1] is less than 10 nM; in assay [2] it was 10 to 50 nM; in assay [3] it was less than 10 nM; in assay [4], less than 10 nM; in assay [5], less than 10 nM.
`CC1(OCCCc2ccc(NC(=O)NCc3ccc4c(c3)CN(C3CCC(=O)NC3=O)C4=O)cc2Cl)CCNCC1` (stereo not shown) [Compound B66]: the concentration for half-maximal inhibition (IC50) in assay [1] is less than 10 nM; in assay [2] it was 10 to 50 nM; in assay [3], less than 10 nM; in assay [4] it was less than 10 nM; in assay [5], less than 10 nM.
Regarding `CC1(OCCCc2ccc(NC(=O)NCc3ccc4c(c3)CN(C3CCC(=O)NC3=O)C4=O)cc2Cl)CCCNC1` (stereo not shown) [Compound B67], the IC50 in assay [1] is less than 10 nM; in assay [2] it was 10 to 50 nM; in assay [3], less than 10 nM; in assay [4] it was less than 10 nM; in assay [5], less than 10 nM.
On to `O=C1CCC(N2Cc3cc(CNC(=O)Nc4ccc(CCCOC5CC6(CNC6)C5)c(Cl)c4)ccc3C2=O)C(=O)N1` (stereo not shown) [Compound B68], for which the IC50 is less than 10 nM in assay [1]; 10 to 50 nM in assay [2]; less than 10 nM in assay [3]; less than 10 nM in assay [4]; less than 10 nM in assay [5].
Turning to `O=C1CCC(N2Cc3cc(CNC(=O)Nc4ccc(CCCOC5CNCC6CCCCC65)c(Cl)c4)ccc3C2=O)C(=O)N1` (stereo not shown) [Compound B70], the IC50 in assay [1] is less than 10 nM; in assay [2], 10 to 50 nM; in assay [3], less than 10 nM; in assay [4] it was 10 to 50 nM; in assay [5], 10 to 50 nM.
Turning to `O=C1CCC(N2Cc3cc(CNC(=O)Nc4ccc(CCCOC5CCNC6CC65)c(Cl)c4)ccc3C2=O)C(=O)N1` (stereo not shown) [Compound B71], the half-maximal inhibitory concentration (IC50) in assay [1] is less than 10 nM; in assay [2], 10 to 50 nM; in assay [3] it was less than 10 nM; in assay [4] it was less than 10 nM; in assay [5], less than 10 nM.

For the origin of these results see EP4667463A1, “DOMIDE MOLECULAR GLUE DERIVATIVE AND USE THEREOF” (CSPC Megalith Biopharmaceutical Co., Ltd., priority 2023, dated 2024).
